Measured values published in patent US20130035246A1, “Method and Apparatus for Determining a Mammal's Exposure to Chemical or Biological Agents” ([…], INC., priority 2011, published 2013).

System: peripheral blood mononuclear cell (PBMC) cultures
Test: Cytokine expression in PBMC cultures challenged with mold cells or PHA (multiplex immunoassay)
Type: cell-based, human
Settings: PBMC from healthy volunteers, 18 hours
Source text: PBMC were isolated from blood collected from patients and control subjects as previously described [Gillis B, Gavin I M, Arbieva Z, King S T, Jayaraman S, Prabhakar B S. Identification of human cell responses to benzene and benzene metabolites. Genomics 2007; 90: 324-333 and Gavin I M, Gillis B, Arbieva Z, Prabhakar B S. Identification of human cell responses to hexavalent chromium. Environ Mol Mutagen 2007; 48: 650-657.] and incorporated herein by reference. One milliliter of blood plasma was also collected from the blood samples and stored frozen at −80° C. […]
After overnight culture of the PMBC, one milliliter of supernatant was removed from each plate, centrifuged at 16,000 g at +4° C. for 10 minutes, and clear cell-free culture media were collected. Cytokine concentrations in culture supernatants, as well as in plasma, were measured by multiplex immunoassay based on Luminex xMAP™ bead array technology using a Bio-Plex 200 fluorescence bead reader (BioRad Laboratories, Hercules, Calif.). […]
Statistical analyses were performed with Microsoft Excel and Analyse-it software (Analyse-it Software Ltd., Leeds, UK). An increase of cytokine expression in immunologic challenges was evaluated using a Student's t-test. […] The statistical significance of the difference in responses to various immunologic challenges was evaluated by using a one-way ANOVA test with Tukey type I error correction. […]

phytohemagglutinin [PHA]
IL-2, IL-4 and IL-5 in culture supernatants: detected
